Measured values as given in US20260365682A1, “MODULATORS OF TNF-ALPHA ACTIVITY” (Forward Therapeutics, Inc., priority 2022, published 2026).

target: T1, TNF-α (Homo sapiens, UniProt P01375); assay: TNF-α Induced HEK Blue Cellular Assay (secreted alkaline phosphatase expression, QUANTI-Blue); assay type: cell-based; details: HEK Blue TNFα reporter cells; TNF-α 100 μg/ml; 24 hrs at 37° C.; inhibition of secreted alkaline phosphatase; read-out: IC50 value
T1 construct: purchased R&D 210-TA-020/CF
Procedure, shortened: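 HEK Blue TNFα reporter cells (10,000/well) in DMEM with 10% FBS received compound ([…] to 0.5 nM final) and TNF-α at […] final for 24 h at 37° C. Secreted alkaline phosphatase read with QUANTI-Blue at 620 nm. IC50 came from a 4-parameter logistic fit after normalising to unstimulated and stimulated DMSO controls.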

T1 sequence (P01375 77-233 limits assumed): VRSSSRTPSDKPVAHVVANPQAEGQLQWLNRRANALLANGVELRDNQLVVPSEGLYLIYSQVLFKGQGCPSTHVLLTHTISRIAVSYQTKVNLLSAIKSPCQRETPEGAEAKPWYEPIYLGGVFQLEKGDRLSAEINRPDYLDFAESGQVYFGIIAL

IC50 [nM] | SMILES
10000 to 30000 | [2H]C([2H])([2H])N1C(=O)c2cccc(OC(F)F)c2[C@H]2C[C@@H]1c1nc3ccc(C#CC4(C)CCN(C(=O)C5CC5)CC4)cc3n12 [Example 181, (7R,14R)-11-((1-(cyclopropanecarbonyl)-4-methylpiperidin-4-yl)ethynyl)-1-(difluoromethoxy)-6-(methyl-d3)-6,7-dihydro-7,14-methanobenzo[f]benzo[4,5]imidazo[1,2-a][1,4]diazocin-5(14H)-one]
< 100 | CN1C(=O)c2cccc(OC(F)F)c2[C@H]2C[C@@H]1c1nc3ccc(C#Cc4cncn4C)cc3n12 [Example 9, (1R,11R)-18-(difluoromethoxy)-12-methyl-5-[2-(3-methylimidazol-4-yl)ethynyl]-2,9,12-triazapentacyclo[9.8.1.0^{2,10}.0^{3,8}.0^{14,19}]icosa-3(8),4,6,9,14(19),15,17-heptaen-13-one]
< 100 | [2H]C([2H])([2H])N1C(=O)c2cccc(OC(F)F)c2[C@H]2C[C@@H]1c1nc3ccc(C#CC4CCN(C(=O)C5(O)CC5)C4)cc3n12 (stereo partly drawn) [Example 203, (7R,14R)-1-(difluoromethoxy)-11-((1-(1-hydroxycyclopropane-1-carbonyl)pyrrolidin-3-yl)ethynyl)-6-(methyl-d3)-6,7-dihydro-7,14-methanobenzo[f]benzo[4,5]imidazo[1,2-a][1,4]diazocin-5(14H)-one]
10000 to 30000 | [2H]C([2H])([2H])N1C(=O)c2cccc(OC(F)F)c2[C@H]2C[C@@H]1c1nc3ccc(C#CC(N)CC(C)(C)O)cc3n12 (single isomer, unassigned) [Example 216, (7R,14R)-11-((S or R)-3-amino-5-hydroxy-5-methylhex-1-yn-1-yl)-1-(difluoromethoxy)-6-(methyl-d3)-6,7-dihydro-7,14-methanobenzo[f]benzo[4,5]imidazo[1,2-a][1,4]diazocin-5(14H)-one]
< 100 | [2H]C([2H])([2H])N1C(=O)c2cccc(OC(F)F)c2[C@H]2C[C@@H]1c1nc3ccc(C#Cc4nnc(N)s4)cc3n12 [Example 263, (7R,14R)-11-((5-amino-1,3,4-thiadiazol-2-yl)ethynyl)-1-(difluoromethoxy)-6-(methyl-d3)-6,7-dihydro-7,14-methanobenzo[f]benzo[4,5]imidazo[1,2-a][1,4]diazocin-5(14H)-one]
< 100 | [2H]C([2H])([2H])N1C(=O)c2cccc(OC(F)F)c2[C@H]2C[C@@H]1c1nc3ccc(C#C[C@@H](C)N)cc3n12 [Example 50, (7R,14R)-11-((R)-3-aminobut-1-yn-1-yl)-1-(difluoromethoxy)-6-(methyl-d3)-6,7-dihydro-7,14-methanobenzo[f]benzo[4,5]imidazo[1,2-a][1,4]diazocin-5(14H)-one]
< 100 | [2H]C([2H])([2H])N1C(=O)c2cccc(OC(F)F)c2[C@H]2C[C@@H]1c1nc3ccc(C#Cc4cnc(C)cn4)cc3n12 [Example 34, (7R,14R)-1-(difluoromethoxy)-6-(methyl-d3)-11-((5-methylpyrazin-2-yl)ethynyl)-6,7-dihydro-7,14-methanobenzo[f]benzo[4,5]imidazo[1,2-a][1,4]diazocin-5(14H)-one]
< 100 | [2H]C([2H])([2H])N1C(=O)c2cccc(OC(F)F)c2[C@H]2C[C@@H]1c1nc3ccc(C#Cc4cnsc4)cc3n12 [Example 36, (7R,14R)-1-(difluoromethoxy)-11-(isothiazol-4-ylethynyl)-6-(methyl-d3)-6,7-dihydro-7,14-methanobenzo[f]benzo[4,5]imidazo[1,2-a][1,4]diazocin-5(14H)-one]
< 100 | CC1C(C#Cc2ccc3nc4n(c3c2)[C@@H]2C[C@H]4N(C)C(=O)c3cccc(OC(F)F)c32)CN1C1COC1 (single isomer, unassigned) [Example 257, (7R,14R)-1-(difluoromethoxy)-6-(methyl-d3)-11-(((2S or 2R)-2-methyl-1-(oxetan-3-yl)azetidin-3-yl)ethynyl)-6,7-dihydro-7,14-methanobenzo[f]benzo[4,5]imidazo[1,2-a][1,4]diazocin-5(14H)-one]
< 100 | [2H]C([2H])([2H])N1C(=O)c2cccc(OC(F)F)c2[C@H]2C[C@@H]1c1nc3ccc(C#CCCOC(F)F)cc3n12 [Example 103, (7R,14R)-1-(difluoromethoxy)-11-(4-(difluoromethoxy)but-1-yn-1-yl)-6-(methyl-d3)-6,7-dihydro-7,14-methanobenzo[f]benzo[4,5]imidazo[1,2-a][1,4]diazocin-5(14H)-one]
10000 to 30000 | [2H]C([2H])([2H])N1C(=O)c2cccc(OC(F)F)c2[C@H]2C[C@@H]1c1nc3ccc(C#CCC(C)(C)O)cc3n12 [Example 82, (7R,14R)-1-(difluoromethoxy)-11-(4-hydroxy-4-methylpent-1-yn-1-yl)-6-(methyl-d3)-6,7-dihydro-7,14-methanobenzo[f]benzo[4,5]imidazo[1,2-a][1,4]diazocin-5(14H)-one]
1000 to 10000 | [2H]C([2H])([2H])N1C(=O)c2cccc(OC(F)F)c2[C@H]2C[C@@H]1c1nc3ccc(C#CCOC4CCN(C(=O)OC(C)(C)C)CC4)cc3n12 [Example 116, tert-butyl 4-((3-((7R,14R)-1-(difluoromethoxy)-6-(methyl-d3)-5-oxo-5,6,7,14-tetrahydro-7,14-methanobenzo[f]benzo[4,5]imidazo[1,2-a][1,4]diazocin-11-yl)prop-2-yn-1-yl)oxy)piperidine-1-carboxylate]
10000 to 30000 | [2H]C([2H])([2H])N1C(=O)c2cccc(OC(F)F)c2[C@H]2C[C@@H]1c1nc3ccc(C#C[C@H](C)NCC)cc3n12 [Example 55, (7R,14R)-1-(difluoromethoxy)-11-((S)-3-(ethylamino)but-1-yn-1-yl)-6-(methyl-d3)-6,7-dihydro-7,14-methanobenzo[f]benzo[4,5]imidazo[1,2-a][1,4]diazocin-5(14H)-one]
10000 to 30000 | [2H]C([2H])([2H])N1C(=O)c2cccc(OC(F)F)c2[C@H]2C[C@@H]1c1nc3ccc(C#CC4CN(C(=O)C5CC5(F)F)C4)cc3n12 (stereo partly drawn) [Example 194, (7R,14R)-11-((1-(2,2-difluorocyclopropane-1-carbonyl)azetidin-3-yl)ethynyl)-1-(difluoromethoxy)-6-(methyl-d3)-6,7-dihydro-7,14-methanobenzo[f]benzo[4,5]imidazo[1,2-a][1,4]diazocin-5(14H)-one]
100 to 1000 | [2H]C([2H])([2H])N1C(=O)c2cccc(OC(F)F)c2[C@H]2C[C@@H]1c1nc3ccc(C#CC4(C)CCN(C(=O)C5(C)CC5)C4)cc3n12 (stereo partly drawn) [Example 182, (7R,14R)-1-(difluoromethoxy)-6-(methyl-d3)-11-((3-methyl-1-(1-methylcyclopropane-1-carbonyl)pyrrolidin-3-yl)ethynyl)-6,7-dihydro-7,14-methanobenzo[f]benzo[4,5]imidazo[1,2-a][1,4]diazocin-5(14H)-one]
< 100 | [2H]C([2H])([2H])N1C(=O)c2cccc(OC(F)F)c2[C@H]2C[C@@H]1c1nc3ccc(C#Cc4cnn(CCO)c4)cc3n12 [Example 10, (7R,14R)-1-(difluoromethoxy)-11-((1-(2-hydroxyethyl)-1H-pyrazol-4-yl)ethynyl)-6-(methyl-d3)-6,7-dihydro-7,14-methanobenzo[f]benzo[4,5]imidazo[1,2-a][1,4]diazocin-5(14H)-one]
100 to 1000 | [2H]C([2H])([2H])N1C(=O)c2cccc(OC(F)F)c2[C@H]2C[C@@H]1c1nc3ccc(C#CC4(C)CCOC4)cc3n12 (stereo partly drawn) [Example 212, (7R,14R)-1-(difluoromethoxy)-6-(methyl-d3)-11-((3-methyltetrahydrofuran-3-yl)ethynyl)-6,7-dihydro-7,14-methanobenzo[f]benzo[4,5]imidazo[1,2-a][1,4]diazocin-5(14H)-one]
< 100 | [2H]C([2H])([2H])N1C(=O)c2cccc(OC(F)F)c2[C@H]2C[C@@H]1c1nc3ccc(C#CCOCC(F)(F)F)cc3n12 [Example 160, (7R,14R)-1-(difluoromethoxy)-6-(methyl-d3)-11-(3-(2,2,2-trifluoroethoxy)prop-1-yn-1-yl)-6,7-dihydro-7,14-methanobenzo[f]benzo[4,5]imidazo[1,2-a][1,4]diazocin-5(14H)-one]
100 to 1000 | [2H]C([2H])([2H])N1C(=O)c2cccc(OC(F)F)c2[C@H]2C[C@@H]1c1nc3ccc(C#CC4CN(C(=O)C(C)(C)C#N)C4)cc3n12 [Example 193, 3-(3-(((7R,14R)-1-(difluoromethoxy)-6-(methyl-d3)-5-oxo-5,6,7,14-tetrahydro-7,14-methanobenzo[f]benzo[4,5]imidazo[1,2-a][1,4]diazocin-11-yl)ethynyl)azetidin-1-yl)-2,2-dimethyl-3-oxopropanenitrile]
< 100 | [2H]C([2H])([2H])N1C(=O)c2cccc(OC(F)F)c2[C@H]2C[C@@H]1c1nc3ccc(C#CCC(O)C(C)O)cc3n12 (single isomer, unassigned) [Example 244, (7R,14R)-1-(difluoromethoxy)-11-((4S or 4S,5R or 5S)-4,5-dihydroxyhex-1-yn-1-yl)-6-(methyl-d3)-6,7-dihydro-7,14-methanobenzo[f]benzo[4,5]imidazo[1,2-a][1,4]diazocin-5(14H)-one]
< 100 | [2H]C([2H])([2H])N1C(=O)c2cccc(OC(F)F)c2[C@H]2C[C@@H]1c1nc3ccc(C#CCCN4CC(F)(F)C4)cc3n12 [Example 233, (7R,14R)-11-(4-(3,3-difluoroazetidin-1-yl)but-1-yn-1-yl)-1-(difluoromethoxy)-6-(methyl-d3)-6,7-dihydro-7,14-methanobenzo[f]benzo[4,5]imidazo[1,2-a][1,4]diazocin-5(14H)-one]
< 100 | [2H]C([2H])([2H])N1C(=O)c2cccc(OC(F)F)c2[C@H]2C[C@@H]1c1nc3ccc(C#C)cc3n12 [Example 44, (7R,14R)-1-(difluoromethoxy)-11-ethynyl-6-(methyl-d3)-6,7-dihydro-7,14-methanobenzo[f]benzo[4,5]imidazo[1,2-a][1,4]diazocin-5(14H)-one]
